Measurements from patent publication EP4714953A1, “MELANOCORTIN 2-TYPE RECEPTOR ANTAGONIST” (Scohia Pharma, Inc., priority 2023, dated 2024).

Key:
[1] = test system: ACTH-induced corticosterone secretion; experiment: Suppressive action of ACTH-induced corticosterone secretion in mice; format: in vivo; conditions: 10 mg/kg, p.o.; male ICR mice; ACTH (1-24) 100 µg/kg subcutaneously 1 hr later; AUC up to 2 hr after ACTH administration
Experimental: Experimental Example 2: Suppressive action of ACTH-induced corticosterone secretion in mice
Nine-week-old male ICR mice (CHARLES RIVER LABORATORIES JAPAN, INC.) were used in the test.
The mice were assigned to each group based on body weight, with 5 mice per group. Test compounds were suspended in 0.5% (w/v) methylcellulose solution. ACTH (1-24) (A0948, LKT Laboratories, Inc.) was dissolved in saline. The test compound (10 mg/kg) or vehicle was orally administered to mice, and 1 hr later, ACTH solution (100 µg/kg) was administered subcutaneously. Blood was collected from the tail vein before ACTH administration and 0.5, 1, and 2 hr after administration, and corticosterone concentration in plasma was measured using an ELISA kit (EC3001-1, Assaypro). Using the plasma corticosterone concentration at each time point, the area under the blood concentration-time curve up to 2 hr after administration (AUC0-2h) was calculated.

human MC2R = target: T1, human MC2R (Homo sapiens, UniProt Q01718); experiment: Measurement of human MC2R inhibitory activity using intracellular cAMP concentration as an indicator; format: cell-based; conditions: test compound at 1 µM; GeneBLAzer MC2R-CRE-bla CHO-K1 cells; ACTH (Human 1-24) final concentration 3 pM; intracellular cAMP by HTRF; read-out: MC2R inhibition rate (% of inhibition)
T1 construct: host or cells: GeneBLAzer MC2R-CRE-bla CHO-K1 cells
Procedure, shortened: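 MC2R-CRE-bla CHO-K1 cells at 1,500/well in HBSS with 10 mM HEPES pH 7.5, 0.01% BSA and 500 µM IBMX, preincubated 20 min with compound, then stimulated with 3 pM ACTH(1-24) for 30 min at room temperature. cAMP read by HTRF; % inhibition from the ACTH-stimulated and unstimulated windows.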

T1 sequence (Q01718 whole entry): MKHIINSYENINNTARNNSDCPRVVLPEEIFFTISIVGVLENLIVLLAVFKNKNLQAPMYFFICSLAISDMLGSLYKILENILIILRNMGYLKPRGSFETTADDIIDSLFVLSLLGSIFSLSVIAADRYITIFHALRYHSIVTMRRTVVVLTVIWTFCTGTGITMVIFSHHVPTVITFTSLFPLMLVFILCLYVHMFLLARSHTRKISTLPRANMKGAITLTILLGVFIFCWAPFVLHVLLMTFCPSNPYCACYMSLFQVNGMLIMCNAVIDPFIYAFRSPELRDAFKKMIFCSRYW
T1 sequence (Q8TCY5 whole entry partner): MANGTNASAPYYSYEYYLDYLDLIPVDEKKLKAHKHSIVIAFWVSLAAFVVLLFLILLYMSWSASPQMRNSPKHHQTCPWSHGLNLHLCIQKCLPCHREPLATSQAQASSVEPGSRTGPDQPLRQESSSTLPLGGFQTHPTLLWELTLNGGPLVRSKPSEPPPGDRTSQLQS

Structure (SMILES) | inhibition at 1 µM (human MC2R) [%] | plasma corticosterone AUC0-2h (% of vehicle, mean±S.D.) [1]
CCOc1ncccc1-c1ccc(N2C[C@H]3CN(c4ccc(Cl)cc4C(F)(F)F)C(=O)N3C[C@H]2CC)c(C(=O)NCC2(O)COC2)n1 [Example 30, 3-[(6R,8aS)-2-[4-chloro-2-(trifluoromethyl)phenyl]-6-ethyl-3-oxo-5,6,8,8a-tetrahydro-1H-imidazo[1,5-a]pyrazin-7-yl]-6-(2-ethoxypyridin-3-yl)-N-[(3-hydroxyoxetan-3-yl)methyl]pyridine-2-carboxamide] | 100 | 8.6 ± 2.4 % of vehicle
CCOc1ncccc1-c1ccc(N2C[C@H]3CN(c4ccc(Cl)cc4C(F)(F)F)C(=O)N3C[C@H]2CC)c(C(=O)N[C@@H]2CCNC2)n1 [Example 31, 3-[(6R,8aS)-2-[4-chloro-2-(trifluoromethyl)phenyl]-6-ethyl-3-oxo-5,6,8,8a-tetrahydro-1H-imidazo[1,5-a]pyrazin-7-yl]-6-(2-ethoxypyridin-3-yl)-N-[(3R)-pyrrolidin-3-yl]pyridine-2-carboxamide] | 100 | 61.1 ± 7.3 % of vehicle
CCOc1ncccc1-c1ccc(N2C[C@H]3CN(c4ccc(Cl)cc4C(F)(F)F)C(=O)N3C[C@H]2CC)c(C(=O)NC[C@H](C)O)n1 [Example 34, 3-[(6R,8aS)-2-[4-chloro-2-(trifluoromethyl)phenyl]-6-ethyl-3-oxo-5,6,8,8a-tetrahydro-1H-imidazo[1,5-a]pyrazin-7-yl]-6-(2-ethoxypyridin-3-yl)-N-[(2S)-2-hydroxypropyl]pyridine-2-carboxamide] | 96 | 15.6 ± 4.9 % of vehicle

Further lines, with some results ahead:

inhibition at 1 µM (human MC2R) [%] | Structure (SMILES) | plasma corticosterone AUC0-2h (% of vehicle, mean±S.D.) [1]
100 | CCOc1ncccc1-c1ccc(N2C[C@H]3CN(c4ccc(Cl)cc4C(F)(F)F)C(=O)N3C[C@H]2CC)c(C(=O)NCC(=O)NC)n1 [Example 37, 3-[(6R,8aS)-2-[4-chloro-2-(trifluoromethyl)phenyl]-6-ethyl-3-oxo-5,6,8,8a-tetrahydro-1H-imidazo[1,5-a]pyrazin-7-yl]-6-(2-ethoxypyridin-3-yl)-N-[2-(methylamino)-2-oxoethyl]pyridine-2-carboxamide] | 14.0 ± 1.8 % of vehicle
100 | CCOc1ncccc1-c1ccc(N2C[C@H]3CN(c4ccc(Cl)cc4C(F)(F)F)C(=O)N3C[C@H]2CC)c(C(=O)N[C@H]2CNC(=O)C2)n1 [Example 38, 3-[(6R,8aS)-2-[4-chloro-2-(trifluoromethyl)phenyl]-6-ethyl-3-oxo-5,6,8,8a-tetrahydro-1H-imidazo[1,5-a]pyrazin-7-yl]-6-(2-ethoxypyridin-3-yl)-N-[(3R)-5-oxopyrrolidin-3-yl]pyridine-2-carboxamide] | 14.2 ± 4.3 % of vehicle
100 | CCOc1ncccc1-c1ccc(N2C[C@H]3CN(c4ccc(Cl)cc4C(F)(F)F)C(=O)N3C[C@H]2CC)c(C(=O)N[C@@H]2CCNC2=O)n1 [Example 47, 3-[(6R,8aS)-2-[4-chloro-2-(trifluoromethyl)phenyl]-6-ethyl-3-oxo-5,6,8,8a-tetrahydro-1H-imidazo[1,5-a]pyrazin-7-yl]-6-(2-ethoxypyridin-3-yl)-N-[(3R)-2-oxopyrrolidin-3-yl]pyridine-2-carboxamide] | 17.5 ± 4.4 % of vehicle
100 | CCOc1ncccc1-c1ccc(N2C[C@H]3CN(c4ccc(Cl)cc4C(F)(F)F)C(=O)N3C[C@H]2CC)c(C(=O)N[C@@H]2CC(=O)N(C)C2)n1 [Example 49, 3-[(6R,8aS)-2-[4-chloro-2-(trifluoromethyl)phenyl]-6-ethyl-3-oxo-5,6,8,8a-tetrahydro-1H-imidazo[1,5-a]pyrazin-7-yl]-6-(2-ethoxypyridin-3-yl)-N-[(3R)-1-methyl-5-oxopyrrolidin-3-yl]pyridine-2-carboxamide] | 7.7 ± 2.5 % of vehicle
